According to PubChem BioAssay AID2744 (NMMLSC, 2010):
Calls of active or inactive are those of the source.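 Rule for the calls: active = fitted half-maximal concentration for changing reporter fluorescence at or below a set limit; inactive = the rest.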

Each molecule was assayed against Citrate synthase, peroxisomal (Saccharomyces cerevisiae (strain ATCC 204508 / S288c)) (UniProt P08679) (assay: yeast TOR pathway CIT2-GFP reporter potency – flow cytometry, MLPCN hits, dose response (AID 2744)). Details: S. cerevisiae CIT2-GFP strain, 3 h, at 33 µM (top of the series).
Citrate synthase, peroxisomal (Saccharomyces cerevisiae (strain ATCC 204508 / S288c)), sequence (P08679 whole entry, looked up): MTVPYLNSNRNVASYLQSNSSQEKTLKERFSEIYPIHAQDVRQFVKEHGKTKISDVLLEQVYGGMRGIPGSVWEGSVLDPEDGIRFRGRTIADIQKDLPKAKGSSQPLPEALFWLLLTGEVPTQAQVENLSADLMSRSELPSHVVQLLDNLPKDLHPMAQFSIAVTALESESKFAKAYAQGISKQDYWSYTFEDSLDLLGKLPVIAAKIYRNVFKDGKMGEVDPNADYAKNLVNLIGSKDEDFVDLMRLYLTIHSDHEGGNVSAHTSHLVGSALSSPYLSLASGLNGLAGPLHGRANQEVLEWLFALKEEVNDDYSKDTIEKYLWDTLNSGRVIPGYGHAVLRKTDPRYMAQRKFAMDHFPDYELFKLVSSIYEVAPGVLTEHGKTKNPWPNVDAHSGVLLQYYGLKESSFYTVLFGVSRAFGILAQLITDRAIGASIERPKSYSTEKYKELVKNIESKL

| Structure (SMILES) | GFP fluorescence, higher = induction |
| --- | --- |
| O=C1C=CC(=O)N1c1ccc(OC(F)F)cc1 | inactive |
| CS(=O)(=O)N1N=C(c2ccccc2)CC1c1ccc2c(c1)OCO2 (centres undefined) | inactive |
| COc1ccc(N=Cc2nc(-c3ccccc3)oc2OC(=O)c2ccccc2)cc1 | inactive |
| O=C1ON=C(c2ccc(Cl)cc2)/C1=C/c1ccc(O)cc1 | inactive |
| Cc1ccc(C)c(/C=C/C(=O)c2ccccc(=O)c2O)c1 | inactive |
| O=C1C=CC(=O)N1c1ccc(Sc2ccc([N+](=O)[O-])cc2)cc1 | inactive |
| Cc1ccccc1[C@@]1(C)ON(c2ccccc2C(F)(F)F)C1=O | inactive |
| CC(C)(C)C(=O)C(Cl)C(=O)Nc1ccccc1 (centres undefined) | inactive |
| CC(=O)OC[C@]12CC[C@H]3[C@@](C)(CC[C@H]4C(C)(C)CCC[C@]34C)[C@@H]1C[C@H](C1=CC(=O)O[C@@H]1OC(C)=O)O2 | inactive |
| C=CCn1c(C)c(/C=C/c2cc[n+](C)cc2)c2ccccc21 | inactive |
| COC(CNC(=O)c1ccc2c3c(onc13)-c1ccccc1C2=O)OC | inactive |
| O=C(Nc1nnc(-c2ccc(Cl)cc2)o1)c1ccccc1Br | inactive |
| CC[C@@]1(c2ccccc2OC)ON(c2ccccc2C(F)(F)F)C1=O | inactive |
| CCCCC(=O)NC(=S)NNC(=O)CCc1ccccc1 | inactive |
| O=[N+]([O-])c1cc(O)c2ncccc2c1 | inactive |
| COc1ccccc1[C@@]1(C)ON(c2ccccc2C(F)(F)F)C1=O | inactive |
| O=C1C(Cl)=C(Nc2ccccc2O)C(=O)N1CCc1ccccc1 | inactive |
| Cc1ccc2[nH]cc(/C=C/c3cc[n+](C)cc3)c2c1 | inactive |
| COc1ccccc1N1C(=O)c2cccc3c(C(=O)O)ccc(c23)C1=O | inactive |
| CC(=O)n1cc(C(C[N+](=O)[O-])SCCN)c2ccccc21 (centres undefined) | inactive |
| COc1ccccc1OCCCc1c(C)n[nH]c1C | inactive |
| O=C(Nc1nnc(-c2ccc3c(c2)CCCC3)o1)c1ccc(Cl)cc1Cl | inactive |
| N#C/C(=C\c1cc(Br)ccc1F)C(=O)NC1CC1 | inactive |

| Structure (SMILES) | GFP fluorescence, higher = induction |
| --- | --- |
| O=c1c2cnn(-c3ccccc3)c2ncn1Cc1ccco1 | inactive |
| CC(=O)N(C(C)=O)c1ncnc2c1c(-c1ccc(Cl)cc1)nn2C(C)(C)C | inactive |
| Cc1cccc(C)c1NC(=O)C(Cl)C(=O)c1ccccc1 (centres undefined) | inactive |
| Cc1ccc(/C=c2\sc3nc(-c4cccs4)nn3c2=O)o1 | inactive |
| O=c1cc(-c2ccccc2)cc(-c2ccccc2)n1O | inactive |
| CCN(CC)C(=S)SSC(=S)N(CC)CC | inactive |
| Cc1ccc2c(nc3s/c(=C\c4ccc(-c5ccccc5C(=O)O)o4)c(=O)n32)c1C | inactive |
| Cc1sc(/C=C2\C(=O)ON=C2c2ccccc2)cc1Br | inactive |
| CCCCC1OC23CCCCC2C(C#N)(C(=N)O3)C1(C#N)C#N (centres undefined) | inactive |
| Cc1ccc(C(=O)O/N=C(\N)Cc2cccs2)c(Cl)c1 | inactive |
| CC[C@]1(c2ccccc2OC)ON(c2ccccc2C(F)(F)F)C1=O | inactive |
| C/C(=N/NC(=O)c1ccc(C(C)(C)C)cc1)c1ccccn1 | inactive |
| CN(Cc1cnc2nc(N)nc(N)c2n1)c1ccc(C(=O)N[C@@H](CCC(=O)O)C(=O)O)cc1 | inactive |
| O=C1c2ccccc2C(=O)N1OS(=O)(=O)c1ccccc1 | inactive |
| Cc1ccc(N2C(=O)CC(Sc3ncn[nH]3)C2=O)cc1C (centres undefined) | inactive |
| CCCc1cc(NCc2ccccn2)n2nc(C)c(-c3ccccc3)c2n1 | inactive |
| CCCc1cc(N2CCN(c3ccccn3)CC2)n2nc(C)c(-c3ccccc3)c2n1 | inactive |
| CNC(CC(=O)c1ccc([N+](=O)[O-])cc1)C(Cl)(Cl)Cl (centres undefined) | inactive |
| Nc1ccc2ccc3cccc[n+]3c2c1 | inactive |
| Oc1ccc(COCc2ccccc2)c2cccnc12 | inactive |
| Cc1ccnc(N2C(=O)c3cccc4c([N+](=O)[O-])ccc(c34)C2=O)c1 | inactive |
| COc1ccc(N2C(=O)CC(Sc3ncn[nH]3)C2=O)c(OC)c1 (centres undefined) | inactive |
| Clc1cnc(N/N=C/c2cccs2)c(Cl)c1 | inactive |

| Structure (SMILES) | GFP fluorescence, higher = induction |
| --- | --- |
| CN(C)C(=O)Oc1ccnc2cc(Cl)ccc12 | inactive |
| O=C(Nc1nc2ccc(F)cc2s1)c1ccccn1 | inactive |
| N#Cc1cc([N+](=O)[O-])c(-n2nnc3ccccc32)c([N+](=O)[O-])c1 | inactive |
| O=c1oc2ccccc2c(O)c1[C@H]1c2ccc(O)cc2Oc2c1c(=O)oc1ccccc21 | inactive |
| O=C(Oc1c(Cl)cc(Cl)c2cccnc12)c1cccs1 | inactive |
| O=C(/C=C/c1ccc(Br)cc1)NC(=S)NNC(=O)c1ccco1 | inactive |
| CCN1/C(=C/C(C)=C/c2sc3ccccc3[n+]2CC)Sc2ccccc21 | inactive |
| Cc1ccc(N=Nc2ccc(O)c3ncccc23)cc1 | inactive |
| CCOc1cc(C=C2C(=O)c3ccccc3C2=O)ccc1OCC(=O)Nc1ccc(C)cc1 | inactive |
| CCCCNc1c2c3c(cccc3n(C)c1=O)C(=O)c1ccccc1-2 | inactive |
| O=C(/C=C/c1ccc(F)cc1)NC(=S)NNC(=O)c1cnccn1 | inactive |
| C/C(=N\Nc1ncnc2sc(C)c(C)c12)c1ccccn1 | inactive |
| O=S1(=O)C=C(Sc2nc3ccccc3s2)c2ccccc21 | inactive |
| COc1cc(/C=C2/C(=O)c3cccc([N+](=O)[O-])c3C2=O)c(Br)cc1O | inactive |
| CC(C)(C)C(=O)NC(=S)NNC(=O)c1ccc(-c2ccccc2)cc1 | inactive |
| COc1ccc(/C=C2/C(=O)ON=C2c2ccccc2)cc1OC | inactive |
| CC(=O)CSc1ncnc2c1cnn2-c1ccccc1 | inactive |
| O=[N+]([O-])c1c(Nc2ccccn2)cc(Cl)c2nonc12 | inactive |
| Oc1c(CN2CCN(c3ccccc3)CC2)cc(Br)c2cccnc12 | inactive |
| O=C1NC(=O)N(Cc2ccco2)C(=O)/C1=C/c1ccc(-c2cccc([N+](=O)[O-])c2)o1 | inactive |
| CN(c1ccccc1)c1ccc(/C=c2\s/c(=C(/C#N)C(=O)C(C)(C)C)n(Cc3ccco3)c2=O)cc1 | inactive |
| C=CCOc1cccc(C(=O)/C=C2/C(=O)Nc3ccccc32)c1 | inactive |

Same assay, conditions: S. cerevisiae CIT2-GFP strain, flow cytometry fluorescence, 3 h

| Structure (SMILES) | EC50 [µM] |
| --- | --- |
| N=C1/C(=C\c2coc3ccccc3c2=O)C(=O)N=C2SC(c3ccncc3)=NN12 | 13 |
